Assay results published in patent US5679805A, “Photochromic spironaphthopyran compounds” (Vision-Ease Lens, Inc., priority 1995, dated 1997).

What was measured:
[1] = fade time T1/2 of chloroform-dissolved photochromic compounds after isolation from ultraviolet light; assay type: physicochemical; set-up: key to T1/2 (fade time), footnoted reading: *: Fades too fast to obtain readings; conditions: room temperature (72° F.); for T1/2 (fade time): absorbance of activated form to one half of maximum
Procedure: Additionally, a purchased sample of 3,3-diphenyl-naphtho-3H[2,1-b]pyran, identified as Comparative Example 2, was dissolved in a separate container of chloroform.
Each of the chloroform-dissolved photochromic compounds of Examples 1-3 and Comparative Examples 1-2 were then irradiated with ultraviolet light with a maximum wavelength of 350 nanometers, and the maximum absorption wavelength λmax was determined for each of the chloroform-dissolved photochromic compound. The fade time, T1/2 was then determined for each of the irradiated compounds. The fade time for a particular chloroform dissolved photochromic compound is defined as the time interval, at room temperature (72° F.), for the absorbance of the activated form of the chloroform-dissolved photochromic compound to decrease to one half of the maximum absorbance, after the photochromic compound is isolated from the activating source of ultraviolet light. The maximum absorption wavelength and fade time determined for each of the irradiated photochromic compounds of Examples 1-3 and Comparative Examples 1-2 are presented in Table 1: […]

[2] = maximum absorption wavelength of chloroform-dissolved photochromic compounds irradiated with ultraviolet light; assay type: physicochemical; conditions: for maximum absorption wavelength λmax: Chloroform, maximum wavelength of 350 nanometers; for maximum wavelength of activation vs Comparative Example 1: compared with Comparative Example 1, 3,3-diphenyl-8-methoxy-3H-naphtho[2,1-b]pyran
[3] = cited from earlier work
[4] = color on activation by ultraviolet light; assay type: physicochemical
[5] = irradiated with ultraviolet light

Row | Compound | T1/2 (fade time) [1] [s] | maximum absorption wavelength λmax [2, 5] | maximum wavelength of activation vs Comparative Example 1 [2] | T1/2 (fade time), footnoted reading [1] | photochromic at room temperature [3] | activated maximum wavelength of absorption ([2]; dissolved in chloroform, irradiated with ultraviolet light) | color when activated by ultraviolet light ([4]; activated by ultraviolet light) | color of blend with blue-turning photochromic compounds when activated ([4]; blend with blue-turning photochromic compounds, such as substituted spiroindolino naphthoxazine, ultraviolet radiation)
1 | COc1ccc2c3c(ccc2c1)OC(c1ccccc1)(c1ccccc1)C=C3 [Comparative Example 1, 3,3-diphenyl-8-methoxy-3H-naphtho[2,1-b]pyran, reference compound] | 10 | – | – | – | – | – | – | –
2 | C1=CC2(Oc3ccc4c5c(ccc4c31)OC1(C=C5)c3ccccc3-c3ccccc31)c1ccccc1-c1ccccc12 [Example 1] | – | 490 | longer maximum wavelength of activation | * | – | – | – | –
3 | C1=CC(c2ccccc2)(c2ccccc2)Oc2ccc3ccccc3c21 [Comparative Example 2, 3,3-diphenyl-naphtho-3H[2,1b]pyran, reference compound] | 13 | 435 | – | – | photochromic at room temperature | – | – | –
4 | C1=CC2(Oc3ccc4c5c(ccc4c31)OC1(C=C5)c3ccccc3Sc3ccccc31)c1ccccc1Sc1ccccc12 [Example 2] | 1.9 | 502 | longer maximum wavelength of activation | – | – | about 502 nanometers | deep shade of red | intense shade of gray
